Laboratory results published in PubChem BioAssay AID328 (DTP/NCI, 2004).
“And” between values parts separate entries of the source, which are not always exact repeats. Identical values can stand only once. Toxic doses and inconclusive results are not listed. How the source made its calls: active means survival T/C of 150% or more; inactive means T/C below 125% in these data.

System: BDF1 mice, P388 leukemia ip, median survival T/C
Experiment: NCI In Vivo Anticancer Drug Screen. Data for tumor model P388 Leukemia (intraperitoneal) in B6D2F1 (BDF1) mice
Conditions: endpoint: median survival time, higher = longer survival
How it was run: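 Survival ratio, drug arm over vehicle arm, in mice with a transplanted tumour.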

[1] = dose: 3.12 mg/kg/injection, schedule: Q01DX009 (ip), vehicle: saline
[2] = dose: 100.0 mg/kg/injection, schedule: Q01DX009 (ip), vehicle: saline with Tween-80
[3] = dose: 200.0 mg/kg/injection, schedule: Q01DX009 (ip), vehicle: saline with Tween-80
[4] = dose: 50.0 mg/kg/injection, schedule: Q01DX009 (ip), vehicle: saline with Tween-80
[5] = dose: 6.25 mg/kg/injection, schedule: Q01DX009 (ip), vehicle: saline
[6] = dose: 12.5 mg/kg/injection, schedule: Q01DX009 (ip), vehicle: saline
[7] = dose: 25.0 mg/kg/injection, schedule: Q01DX009 (ip), vehicle: saline
[8] = dose: 50.0 mg/kg/injection, schedule: Q01DX009 (ip), vehicle: Klucel (hydroxypropylcellulose) (HPC)
[9] = dose: 50.0 mg/kg/injection, schedule: Q01DX009 (ip), vehicle: saline
[10] = dose: 100.0 mg/kg/injection, schedule: Q04DX003 (ip), vehicle: saline with Tween-80
[11] = dose: 200.0 mg/kg/injection, schedule: Q04DX003 (ip), vehicle: saline with Tween-80
[12] = dose: 400.0 mg/kg/injection, schedule: Q04DX003 (ip), vehicle: saline with Tween-80
[13] = dose: 25.0 mg/kg/injection, schedule: Q01DX009 (ip), vehicle: saline with Tween-80
[14] = dose: 100.0 mg/kg/injection, schedule: Q04DX003 (ip), vehicle: Klucel (hydroxypropylcellulose) (HPC)
[15] = dose: 200.0 mg/kg/injection, schedule: Q04DX003 (ip), vehicle: Klucel (hydroxypropylcellulose) (HPC)
[16] = dose: 400.0 mg/kg/injection, schedule: Q04DX003 (ip), vehicle: Klucel (hydroxypropylcellulose) (HPC)
[17] = dose: 100.0 mg/kg/injection, schedule: Q01DX009 (ip), vehicle: saline
[18] = dose: 100.0 mg/kg/injection, schedule: Q04DX003 (ip), vehicle: other
[19] = dose: 200.0 mg/kg/injection, schedule: Q04DX003 (ip), vehicle: other

Measured: T/C

NCc1cn(C2OC(CO)C(O)C2O)c2ncnc(N)c12 (stereo not drawn)
inactive: dose: 1.56 mg/kg/injection, schedule: Q01DX009 (ip), vehicle: saline 91 % of control and 99 % of control | [1] 100 % of control and 123 % of control | dose: 3.12 mg/kg/injection, schedule: Q04DX003 (ip), vehicle: saline 95 % of control | dose: 6.25 mg/kg/injection, schedule: Q04DX003 (ip), vehicle: saline 91 % of control

CCN(CC)CCOC(=O)c1ccc(OCCOc2ccc(C(C)(C)CC(C)(C)C)cc2)c([N+](=O)[O-])c1
inactive: dose: 75.0 mg/kg/injection, schedule: Q04DX003 (ip), vehicle: saline sonified 110 % of control | dose: 150.0 mg/kg/injection, schedule: Q04DX003 (ip), vehicle: saline sonified 110 % of control | dose: 300.0 mg/kg/injection, schedule: Q04DX003 (ip), vehicle: saline sonified 105 % of control

CC(=O)NCCN=Cc1ccccc1
inactive: [2] 112 % of control | [3] 120 % of control

CNCCSS(=O)(=O)CCNC
inactive: dose: 100.0 mg/kg/injection, schedule: Q01DX005 (ip), vehicle: saline 94 % of control

O=C(Cn1ccnc1[N+](=O)[O-])NCc1ccccc1
inactive: [4] 99 % of control | [2] 94 % of control | [3] 100 % of control

CC(C)=CC(=O)OC1C2C(C)C(=O)OC2C(O)C(C)C2C=CC(=O)C21C (stereo not drawn)
inactive: [1] 94 % of control | [5] 101 % of control | [6] 103 % of control | [7] 120 % of control | [8] 118 % of control | [9] 120 % of control

Cc1ccccc1C(=O)NCC(=O)O
inactive: [10] 104 % of control | [11] 100 % of control | [12] 100 % of control

COC(=O)C(F)C(Br)C(=O)OC (stereo not drawn)
inactive: [13] 113 % of control | [4] 115 % of control

Nc1cccc(/C=C/c2ccnc3ccccc23)c1
inactive: dose: 25.0 mg/kg/injection, schedule: Q01DX001 (ip), vehicle: saline with Tween-80 97 % of control | dose: 50.0 mg/kg/injection, schedule: Q01DX001 (ip), vehicle: saline with Tween-80 97 % of control | dose: 100.0 mg/kg/injection, schedule: Q01DX001 (ip), vehicle: saline with Tween-80 93 % of control and 110 % of control | dose: 200.0 mg/kg/injection, schedule: Q01DX001 (ip), vehicle: saline with Tween-80 119 % of control | dose: 400.0 mg/kg/injection, schedule: Q01DX001 (ip), vehicle: saline with Tween-80 102 % of control

CCOC(=O)C(=O)Cc1cnc2ccccc2n1
inactive: [14] 86 % of control | [15] 86 % of control | [16] 90 % of control

S=c1nc[nH]c2nc[nH]c12.[Ag]
inactive: [17] 100 % of control | dose: 200.0 mg/kg/injection, schedule: Q01DX009 (ip), vehicle: saline 108 % of control | dose: 400.0 mg/kg/injection, schedule: Q01DX009 (ip), vehicle: saline 87 % of control

CC(C)=CCCC(C)C/C=N\O (stereo not drawn)
inactive: dose: 12.5 mg/kg/injection, schedule: Q01DX009 (ip), vehicle: saline with Tween-80 107 % of control | [13] 107 % of control | [4] 96 % of control | [10] 109 % of control | [11] 113 % of control | [12] 109 % of control

O=[N+]([O-])c1ccc(/C=[N+](\[O-])CCO)o1
inactive: [4] 111 % of control | [2] 113 % of control | [3] 111 % of control

CCN(CC)CC(C)OC(=O)c1ccc(N)cc1 (stereo not drawn)
inactive: dose: 33.0 mg/kg/injection, schedule: Q01DX009 (ip), vehicle: saline 92 % of control | [9] 100 % of control | dose: 75.0 mg/kg/injection, schedule: Q01DX009 (ip), vehicle: saline 104 % of control | [17] 100 % of control | dose: 100.0 mg/kg/injection, schedule: Q04DX003 (ip), vehicle: saline 95 % of control | dose: 200.0 mg/kg/injection, schedule: Q04DX003 (ip), vehicle: saline 86 % of control

CN(C)c1ccc(Cc2ccc(N(C)C)cc2[N+](=O)[O-])c([N+](=O)[O-])c1
inactive: [14] 104 % of control | [15] 100 % of control | [16] 95 % of control

O=C1CSCC(=O)O1
inactive: [8] 105 % of control | dose: 50.0 mg/kg/injection, schedule: Q04DX003 (ip), vehicle: Klucel (hydroxypropylcellulose) (HPC) 95 % of control | [14] 95 % of control | [15] 109 % of control

Brc1ccc(Oc2ccccc2)cc1
inactive: [10] 122 % of control | dose: 266.0 mg/kg/injection, schedule: Q04DX003 (ip), vehicle: saline with Tween-80 100 % of control | [12] 103 % of control | dose: 600.0 mg/kg/injection, schedule: Q04DX003 (ip), vehicle: saline with Tween-80 96 % of control

CC1C[N+](C)=C2CCCCC2=C1N (stereo not drawn)
inactive: [5] 95 % of control | [6] 100 % of control | [7] 86 % of control

C1CC2CCCC3CC(B4OCCO4)CC(C1)C23 (stereo not drawn) (tested in a mixture with another compound)
inactive: [18] 120 % of control | [19] 100 % of control | dose: 400.0 mg/kg/injection, schedule: Q04DX003 (ip), vehicle: other 100 % of control

Cc1nn(CCO)c(C)c1N=[N+]([O-])c1c(C)nn(CCO)c1C
inactive: dose: 15.0 mg/kg/injection, schedule: Q01DX009 (ip), vehicle: saline with Tween-80 114 % of control

c1ccc(CN2CCn3nccc32)cc1
inactive: dose: 6.25 mg/kg/injection, schedule: Q01DX009 (ip), vehicle: other 98 % of control | dose: 12.5 mg/kg/injection, schedule: Q01DX009 (ip), vehicle: other 90 % of control | dose: 12.5 mg/kg/injection, schedule: Q04DX003 (ip), vehicle: other 104 % of control | dose: 25.0 mg/kg/injection, schedule: Q01DX009 (ip), vehicle: other 91 % of control | dose: 25.0 mg/kg/injection, schedule: Q04DX003 (ip), vehicle: other 91 % of control | dose: 50.0 mg/kg/injection, schedule: Q01DX009 (ip), vehicle: other 94 % of control | dose: 50.0 mg/kg/injection, schedule: Q04DX003 (ip), vehicle: other 91 % of control | dose: 100.0 mg/kg/injection, schedule: Q01DX009 (ip), vehicle: other 92 % of control | [18] 92 % of control | [19] 96 % of control

Cc1ccc2nc(C)n(C)c(=O)c2c1
inactive: [4] 98 % of control | [2] 91 % of control | [3] 92 % of control

COc1cccc(CN2CCCNCC2)c1
inactive: dose: 6.25 mg/kg/injection, schedule: Q04DX003 (ip), vehicle: water 92 % of control | dose: 12.5 mg/kg/injection, schedule: Q04DX003 (ip), vehicle: water 93 % of control | dose: 25.0 mg/kg/injection, schedule: Q04DX003 (ip), vehicle: water 93 % of control | dose: 50.0 mg/kg/injection, schedule: Q04DX003 (ip), vehicle: water 112 % of control | dose: 100.0 mg/kg/injection, schedule: Q04DX003 (ip), vehicle: water 89 % of control

O=[N+]([O-])c1cc([N+](=O)[O-])c2ccccc2c1NS(=O)(=O)c1ccc(Br)cc1
inactive: [13] 112 % of control | [4] 113 % of control
